Measurements published in BindingDB's records for doi:10.1016/j.ejmech.2016.09.002 (King Fahd University of Petroleum and Minerals, 2016).

Test: Inhibition of recombinant GGT1 (unknown origin) using GGPP as substrate preincubated for 5 mins followed by protein addition measured over 20 mins by fluorescence assay

IC50	SMILES
9.9 µM	COc1ccc(C[C@H](NS(C)(=O)=O)C(=O)NCCCOc2c(CCSC)c(-c3cccnc3)nn2-c2ccc(Cl)c(Cl)c2)cc1
3.1 µM	COc1ccc(C[C@H](NC(=O)CCCOc2c(CCSC)c(-c3cccnc3)nn2-c2ccc(Cl)c(Cl)c2)C(N)=O)cc1
> 50 µM	CSCCc1c(-c2cccnc2)nn(-c2ccc(Cl)c(Cl)c2)c1OCCCNC(=O)[C@H](Cc1cccnc1)NC(C)=O
31.9 µM	CSCCc1c(-c2cccnc2)nn(-c2ccc(Cl)c(Cl)c2)c1OCCCNC(=O)[C@H](Cc1ccccc1)NS(C)(=O)=O
19.7 µM	CSCCc1c(-c2cccnc2)nn(-c2ccc(Cl)c(Cl)c2)c1OCCCNC(=O)[C@H](Cc1ccc(F)cc1)NS(C)(=O)=O
> 50 µM	CSCCc1c(-c2cccnc2)nn(-c2ccc(Cl)c(Cl)c2)c1OCCCNC(=O)[C@H](Cc1cccnc1)NS(C)(=O)=O
7.8 µM	CSCCc1c(-c2cccnc2)nn(-c2ccc(Cl)c(Cl)c2)c1OCCCC(=O)N[C@@H](Cc1ccncc1)C(N)=O
34.8 µM	COc1ccc(C[C@H](NC(C)=O)C(=O)NCCCOc2c(CCSC)c(-c3cccnc3)nn2-c2ccc(Cl)c(Cl)c2)cc1
2.4 µM	CSCCc1c(-c2cccnc2)nn(-c2ccc(Cl)c(Cl)c2)c1OCCCC(=O)N[C@@H](Cc1ccc(F)cc1)C(N)=O
11.6 µM	CSCCc1c(-c2cccnc2)nn(-c2ccc(Cl)c(Cl)c2)c1OCCCC(=O)N[C@@H](Cc1cccnc1)C(N)=O
3.3 µM	CSCCc1c(-c2cccnc2)nn(-c2ccc(Cl)c(Cl)c2)c1OCCCC(=O)N[C@@H](Cc1ccccc1)C(N)=O [N-[(S)-1-carbamoyl-2-phenylethyl]-4-[2-(3,4-di-chlorophenyl)-4-(2-methylsulfanylethyl)-5-pyridin-3-yl-2-H-pyrazol-3-yloxy]butyramide]

Test: as above
Remark: another data set of the same source

IC50	SMILES
22.9 µM	CSCCc1c(-c2cccnc2)nn(-c2ccc(Cl)c(Cl)c2)c1OCCCNC(=O)[C@H](Cc1ccccc1)NC(C)=O
